For one test, the target named is EGFR^L858R/T790M/C797S (Homo sapiens, UniProt P00533, C797S/L858R/T790M). In words: HTRF KinEASE-TK in vitro kinase assay, KINASE LTC. The class given is biochemical. From the text:
(§1) The biological activity of compounds described herein were studied according to standard methods known in the art. Methods were used to study inhibition of EGFR, including mutant forms of EGFR comprising L858R, T790M, C797S, and/or Del19 mutations, or any combination thereof (e.g., L858R single, double, or triple mutants). Exemplary, non-limiting methods are described herein.
(§2) Assays using an in vitro kinase assay kit (HTRF KinEASE-TK kit) were used to study the inhibitory activity of compounds described herein with respect to EGFR mutants such as (1) EGFRL858R, (2) EGFR^L858R/T790M, and (3) EGFR^L858R/T790M/C797S.

The target in another test is EGFR^L858R/T790M (Homo sapiens, UniProt P00533, L858R/T790M). In words: HTRF KinEASE-TK in vitro kinase assay, KINASE LT. The class given is biochemical.
EGFR^L858R/T790M, sequence (P00533 25-1210 T790M/L858R): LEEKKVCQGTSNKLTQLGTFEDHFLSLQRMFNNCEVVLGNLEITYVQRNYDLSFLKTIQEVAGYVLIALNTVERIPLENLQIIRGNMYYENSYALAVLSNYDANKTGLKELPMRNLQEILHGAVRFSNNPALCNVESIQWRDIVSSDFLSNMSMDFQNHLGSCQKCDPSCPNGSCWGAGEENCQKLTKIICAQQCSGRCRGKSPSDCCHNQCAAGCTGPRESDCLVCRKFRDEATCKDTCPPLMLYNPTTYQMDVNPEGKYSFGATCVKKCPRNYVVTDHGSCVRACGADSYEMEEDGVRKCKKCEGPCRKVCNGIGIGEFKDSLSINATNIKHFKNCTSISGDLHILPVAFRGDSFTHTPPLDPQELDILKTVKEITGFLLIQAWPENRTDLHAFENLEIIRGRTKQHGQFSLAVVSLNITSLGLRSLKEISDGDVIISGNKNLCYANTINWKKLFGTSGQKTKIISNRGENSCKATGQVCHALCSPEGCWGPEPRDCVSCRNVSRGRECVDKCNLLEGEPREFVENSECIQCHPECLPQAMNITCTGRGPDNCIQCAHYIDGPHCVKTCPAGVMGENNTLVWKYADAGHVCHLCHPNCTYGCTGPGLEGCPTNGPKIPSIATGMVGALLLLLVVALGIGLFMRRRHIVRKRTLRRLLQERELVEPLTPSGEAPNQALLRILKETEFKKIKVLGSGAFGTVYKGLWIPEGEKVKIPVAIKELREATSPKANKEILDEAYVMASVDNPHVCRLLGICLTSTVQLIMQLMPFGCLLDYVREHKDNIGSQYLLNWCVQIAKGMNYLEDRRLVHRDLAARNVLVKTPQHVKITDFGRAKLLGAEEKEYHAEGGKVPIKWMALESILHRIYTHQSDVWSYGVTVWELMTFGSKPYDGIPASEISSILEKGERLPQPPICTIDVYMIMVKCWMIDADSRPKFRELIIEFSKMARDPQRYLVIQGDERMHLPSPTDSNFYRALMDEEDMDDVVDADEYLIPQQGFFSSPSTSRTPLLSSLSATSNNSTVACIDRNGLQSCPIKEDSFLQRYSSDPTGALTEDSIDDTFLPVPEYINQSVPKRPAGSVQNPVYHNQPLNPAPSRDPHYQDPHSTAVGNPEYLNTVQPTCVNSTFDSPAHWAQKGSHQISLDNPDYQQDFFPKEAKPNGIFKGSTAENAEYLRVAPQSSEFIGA
From the text: as §1, §2

In another test the target is EGFRL858R (Homo sapiens, UniProt P00533, L858R). The test is described as follows: HTRF KinEASE-TK in vitro kinase assay, KINASE L. The class given is biochemical. Particulars: EGFR L858R kinase.
EGFRL858R, sequence (P00533 25-1210 L858R): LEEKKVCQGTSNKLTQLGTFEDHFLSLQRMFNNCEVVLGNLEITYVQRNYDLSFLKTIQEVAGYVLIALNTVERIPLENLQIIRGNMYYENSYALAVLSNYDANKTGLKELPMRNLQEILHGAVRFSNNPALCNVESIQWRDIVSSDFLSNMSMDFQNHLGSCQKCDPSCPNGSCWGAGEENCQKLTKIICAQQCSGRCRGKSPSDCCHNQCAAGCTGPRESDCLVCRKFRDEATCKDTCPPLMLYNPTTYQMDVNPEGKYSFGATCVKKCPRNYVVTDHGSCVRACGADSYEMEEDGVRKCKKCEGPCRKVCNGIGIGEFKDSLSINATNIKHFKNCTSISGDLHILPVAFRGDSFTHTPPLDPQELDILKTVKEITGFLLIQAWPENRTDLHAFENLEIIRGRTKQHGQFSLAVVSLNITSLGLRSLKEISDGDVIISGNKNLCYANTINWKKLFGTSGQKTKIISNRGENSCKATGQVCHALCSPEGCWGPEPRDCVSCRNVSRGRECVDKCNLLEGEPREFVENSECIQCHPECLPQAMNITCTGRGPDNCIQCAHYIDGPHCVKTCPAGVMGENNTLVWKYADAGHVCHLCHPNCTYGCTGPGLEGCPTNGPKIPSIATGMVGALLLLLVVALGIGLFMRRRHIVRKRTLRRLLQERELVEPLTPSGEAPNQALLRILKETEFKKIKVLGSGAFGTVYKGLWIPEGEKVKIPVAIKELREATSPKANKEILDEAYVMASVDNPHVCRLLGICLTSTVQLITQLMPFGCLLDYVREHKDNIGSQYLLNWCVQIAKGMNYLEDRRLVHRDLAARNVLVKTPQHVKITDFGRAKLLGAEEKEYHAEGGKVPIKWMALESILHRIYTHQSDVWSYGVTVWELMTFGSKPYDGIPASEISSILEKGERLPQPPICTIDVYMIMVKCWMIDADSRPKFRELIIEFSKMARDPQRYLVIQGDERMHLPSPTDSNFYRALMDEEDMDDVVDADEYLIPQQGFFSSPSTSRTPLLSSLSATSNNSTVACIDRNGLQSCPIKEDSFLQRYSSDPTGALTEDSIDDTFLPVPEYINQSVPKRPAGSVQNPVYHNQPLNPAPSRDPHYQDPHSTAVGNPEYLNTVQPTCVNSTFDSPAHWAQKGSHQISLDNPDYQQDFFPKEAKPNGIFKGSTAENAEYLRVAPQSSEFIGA
From the text: as §1, §2
Background: TR-FRET usually uses a lanthanide donor and a delayed reading to cut background.

Test [1] concerns the target Ba/F3 EGFR-Del19/T790M/C797S (Homo sapiens, UniProt P00533, T790M/C797S, cells depend on it, form not given). The test is described as follows: Ba/F3 viability assay (CellTiter-Glo), BAF3 DTC. Type of test: cell-based. The conditions noted are these: Ba/F3 EGFR-Del19/T790M/C797S cell viability.
From the text: as §1
(§3) Inhibition of cell proliferation was studied using Ba/F3 viability assays, including the Promega CellTiter-Glo cell viability assay. This assay was used to study the effect of compounds described herein in the following assays: (1) Ba/F3 EGFR-Del19/T790M; (2); Ba/F3 EGFR-Del19/C797S; and (3) Ba/F3 EGFR-Del19/T790M/C797S. P-EGFR Signaling Assays
In general terms: ATP-based viability assays read luminescence as a measure of living cells.

In the next test the target is Ba/F3 EGFR-Del19/T790M (Homo sapiens, UniProt P00533, T790M, cells depend on it, form not given). In words: Ba/F3 viability assay (CellTiter-Glo), BAF3 DT. Type of test: cell-based. The conditions noted are these: Ba/F3 EGFR-Del19/T790M cell viability.
From the text: as §1, §3

For the next test, the target named is Ba/F3 EGFR-Del19/C797S (Homo sapiens, UniProt P00533, C797S, cells depend on it, form not given). The test is described as follows: Ba/F3 viability assay (CellTiter-Glo), BAF3 DC. Particulars: Ba/F3 EGFR-Del19/C797S cell viability. Type of test: cell-based.
Ba/F3 EGFR-Del19/C797S, sequence (P00533 with tags, fused parts or gaps DEL746-750/C797S, form open): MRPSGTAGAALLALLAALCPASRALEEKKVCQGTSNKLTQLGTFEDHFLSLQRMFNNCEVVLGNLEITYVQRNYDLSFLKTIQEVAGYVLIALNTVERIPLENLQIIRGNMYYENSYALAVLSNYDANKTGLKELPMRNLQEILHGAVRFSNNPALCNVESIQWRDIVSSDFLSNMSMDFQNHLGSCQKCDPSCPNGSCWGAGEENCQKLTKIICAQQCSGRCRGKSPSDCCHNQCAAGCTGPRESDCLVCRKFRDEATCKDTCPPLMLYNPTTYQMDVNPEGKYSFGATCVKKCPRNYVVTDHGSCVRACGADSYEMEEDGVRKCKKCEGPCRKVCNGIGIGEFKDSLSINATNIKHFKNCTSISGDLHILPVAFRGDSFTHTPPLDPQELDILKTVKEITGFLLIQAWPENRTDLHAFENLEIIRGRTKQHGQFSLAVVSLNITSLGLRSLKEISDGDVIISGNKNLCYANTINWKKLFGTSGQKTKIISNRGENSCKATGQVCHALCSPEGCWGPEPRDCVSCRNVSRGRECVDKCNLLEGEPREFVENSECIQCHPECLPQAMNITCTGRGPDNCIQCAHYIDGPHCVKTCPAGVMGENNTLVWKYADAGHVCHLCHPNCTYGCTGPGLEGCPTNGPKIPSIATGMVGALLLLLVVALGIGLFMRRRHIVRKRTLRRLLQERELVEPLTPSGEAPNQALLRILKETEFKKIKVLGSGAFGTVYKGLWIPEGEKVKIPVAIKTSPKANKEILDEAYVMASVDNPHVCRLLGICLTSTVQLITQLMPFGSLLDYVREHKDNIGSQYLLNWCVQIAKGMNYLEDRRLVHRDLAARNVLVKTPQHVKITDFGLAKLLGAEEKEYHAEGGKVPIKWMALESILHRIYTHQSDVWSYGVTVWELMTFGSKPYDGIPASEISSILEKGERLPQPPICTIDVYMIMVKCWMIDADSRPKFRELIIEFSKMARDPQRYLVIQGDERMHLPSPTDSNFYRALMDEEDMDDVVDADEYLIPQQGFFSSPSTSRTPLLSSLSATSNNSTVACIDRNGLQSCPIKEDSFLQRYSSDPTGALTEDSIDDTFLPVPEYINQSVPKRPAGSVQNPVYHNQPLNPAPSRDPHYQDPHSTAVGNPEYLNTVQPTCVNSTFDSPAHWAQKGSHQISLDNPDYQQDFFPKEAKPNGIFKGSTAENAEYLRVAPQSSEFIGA
From the text: as §1, §3

Structures are written as SMILES.

Eleven compounds from US20240199614A1, “MACROCYCLIC EGFR INHIBITORS FOR THE TREATMENT OF CANCER” (Theseus Pharmaceuticals, Inc., priority 2021, published 2024) can be followed below.

Ba/F3 EGFR-Del19/T790M/C797S, sequence (P00533 with tags, fused parts or gaps DEL746-750/T790M/C797S, form open): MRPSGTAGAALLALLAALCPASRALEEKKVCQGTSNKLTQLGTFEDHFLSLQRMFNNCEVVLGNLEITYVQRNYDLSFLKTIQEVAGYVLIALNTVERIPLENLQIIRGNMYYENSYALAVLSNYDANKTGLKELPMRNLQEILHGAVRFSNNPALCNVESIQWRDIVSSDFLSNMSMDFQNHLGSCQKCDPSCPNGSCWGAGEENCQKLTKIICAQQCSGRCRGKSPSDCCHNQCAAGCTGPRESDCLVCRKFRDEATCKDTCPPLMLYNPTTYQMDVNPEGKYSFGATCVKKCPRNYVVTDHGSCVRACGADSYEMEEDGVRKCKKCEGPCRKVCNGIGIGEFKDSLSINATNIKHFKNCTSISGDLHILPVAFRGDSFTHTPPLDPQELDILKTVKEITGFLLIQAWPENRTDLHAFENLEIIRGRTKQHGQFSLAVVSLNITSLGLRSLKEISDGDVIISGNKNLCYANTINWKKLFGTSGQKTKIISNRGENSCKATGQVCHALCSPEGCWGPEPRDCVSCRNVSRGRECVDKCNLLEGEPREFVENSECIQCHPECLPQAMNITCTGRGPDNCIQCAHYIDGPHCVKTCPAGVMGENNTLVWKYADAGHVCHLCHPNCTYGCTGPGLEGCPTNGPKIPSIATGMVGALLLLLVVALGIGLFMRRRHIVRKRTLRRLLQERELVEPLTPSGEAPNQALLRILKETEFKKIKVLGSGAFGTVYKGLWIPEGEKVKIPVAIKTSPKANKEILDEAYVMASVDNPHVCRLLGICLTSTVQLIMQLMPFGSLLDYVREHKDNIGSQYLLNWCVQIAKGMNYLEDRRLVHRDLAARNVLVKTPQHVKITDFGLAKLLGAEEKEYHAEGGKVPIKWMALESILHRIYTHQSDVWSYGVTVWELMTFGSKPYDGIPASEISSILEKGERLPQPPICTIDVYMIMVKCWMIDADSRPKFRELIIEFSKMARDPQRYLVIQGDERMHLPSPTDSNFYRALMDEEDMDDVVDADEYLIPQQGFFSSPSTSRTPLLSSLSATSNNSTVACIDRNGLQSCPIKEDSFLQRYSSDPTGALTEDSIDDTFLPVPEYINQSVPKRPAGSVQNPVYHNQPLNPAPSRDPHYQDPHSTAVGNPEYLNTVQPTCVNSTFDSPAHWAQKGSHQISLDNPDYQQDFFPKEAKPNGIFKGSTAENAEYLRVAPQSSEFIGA

Regarding `Cc1cc2cc(n1)-c1cnn(C)c1CCC[C@@H](C)CN1/C(=N/C2=O)Nc2ccc(N3CCN(C(C)C)CC3)cc21` [(28)], the IC50 at EGFR^L858R/T790M/C797S, on EGFR^L858R/T790M and at EGFRL858R was below 50 nM each time. The GI50 (in test [1]; on Ba/F3 EGFR-Del19/T790M; at Ba/F3 EGFR-Del19/C797S) was below 50 nM each time.
As for `Cc1cc2cc(n1)-c1cnn(C)c1CCC[C@@H](C)CN1/C(=N/C2=O)Nc2ccc(CN3CCN(C)CC3)cc21` [(35)], the half-inhibitory concentration (IC50) at EGFR^L858R/T790M/C797S, on EGFR^L858R/T790M and on EGFRL858R was below 50 nM throughout. Further, the GI50 (in test [1]; on Ba/F3 EGFR-Del19/T790M; at Ba/F3 EGFR-Del19/C797S) was below 50 nM throughout.
As to `Cc1cc2cc(n1)-c1cnn(C)c1CCCCCCN1/C(=N/C2=O)Nc2ccc(N(C)CCN(C)C)cc21` [(40)], the half-maximal inhibitory concentration (IC50) at EGFR^L858R/T790M/C797S, on EGFR^L858R/T790M and on EGFRL858R was below 50 nM in each case. In addition, the concentration for 50% growth inhibition (GI50) in test [1] was below 50 nM; at Ba/F3 EGFR-Del19/T790M, below 50 nM; on Ba/F3 EGFR-Del19/C797S, 100 to 1000 nM.
For the compound `Cc1cc2cc(n1)-c1cnn(C)c1CCCCCN1/C(=N/C2=O)Nc2ccc(CN3CCNCC3)cc21` [(46)], the concentration for half-maximal inhibition (IC50) at EGFR^L858R/T790M/C797S, at EGFR^L858R/T790M and on EGFRL858R was below 50 nM each time. In addition, the GI50 (in test [1]; on Ba/F3 EGFR-Del19/T790M; at Ba/F3 EGFR-Del19/C797S) was below 50 nM throughout.
Regarding `Cc1cc2cc(n1)-c1cnn(C)c1-c1cccc(c1)C(C)CN1/C(=N/C2=O)Nc2ccc(C(=O)N3CCN(C)CC3)cc21` (stereo not drawn) [(57)], the concentration for half-maximal inhibition (IC50) is below 50 nM at EGFR^L858R/T790M/C797S, below 50 nM at EGFR^L858R/T790M and 100 to 1000 nM at EGFRL858R. In addition, the concentration for 50% growth inhibition (GI50) in test [1] was 100 to 1000 nM; on Ba/F3 EGFR-Del19/T790M it was at least 1000 nM; on Ba/F3 EGFR-Del19/C797S it was 100 to 1000 nM.
`Cc1cc2cc(n1)-c1cnn(C)c1-c1cccc(c1)CN1/C(=N/C2=O)Nc2ccc(CN3CCN(C)CC3)cc21` [(61)]: the IC50 was below 50 nM at EGFR^L858R/T790M/C797S, below 50 nM on EGFR^L858R/T790M and 100 to 1000 nM on EGFRL858R. In addition, the concentration for 50% growth inhibition (GI50) (in test [1]; at Ba/F3 EGFR-Del19/T790M; at Ba/F3 EGFR-Del19/C797S) was 100 to 1000 nM throughout.
With `Cc1cc2cc(n1)-c1cnn(C)c1CCCCCCN1/C(=N/C2=O)Nc2ccc(CN3CCOCC3)cc21` [(62)], the concentration for half-maximal inhibition (IC50) on EGFR^L858R/T790M/C797S is 100 to 1000 nM; at EGFR^L858R/T790M it was 100 to 1000 nM; on EGFRL858R, below 50 nM. Further, the concentration for 50% growth inhibition (GI50) is 100 to 1000 nM in test [1], at least 1000 nM on Ba/F3 EGFR-Del19/T790M and 50 to 100 nM at Ba/F3 EGFR-Del19/C797S.
Regarding `Cc1cc2cc(n1)-c1cnn(C)c1CCCCCCN1/C(=N/C2=O)Nc2ccc(CN3CCN(C)CC3)cc21` [(64)], the half-inhibitory concentration (IC50) at EGFR^L858R/T790M/C797S, on EGFR^L858R/T790M and on EGFRL858R was below 50 nM throughout. In addition, the GI50 in test [1] is below 50 nM; at Ba/F3 EGFR-Del19/T790M it was below 50 nM; at Ba/F3 EGFR-Del19/C797S, 50 to 100 nM.
In the case of `Cc1cc2cc(n1)-c1cnn(C)c1CCCCCN1/C(=N/C2=O)Nc2ccc(CN3CCN(C)CC3)cc21` [(69)], the 50% inhibitory concentration (IC50) at EGFR^L858R/T790M/C797S, at EGFR^L858R/T790M and at EGFRL858R was below 50 nM throughout. Further, the GI50 (in test [1]; at Ba/F3 EGFR-Del19/T790M; on Ba/F3 EGFR-Del19/C797S) was below 50 nM each time.
`Cc1ccc(-c2ccc3c(c2)N2C[C@H](C)CCCc4c(cnn4C)-c4cc(cc(C)n4)C(=O)/N=C/2N3)cn1` [Compound (10), (10R,20E)-5,10,25-trimethyl-15-(6-methyl-3-pyridyl)-4,5,12,19,21,26-hexazapentacyclo[21.3.1.02,6.012,20.013,18]heptacosa-1(27),2(6),3,13(18),14,16,20,23,25-nonaen-22-one]: the IC50 at EGFR^L858R/T790M/C797S, on EGFR^L858R/T790M and on EGFRL858R was below 50 nM each time. Also, the 50% growth inhibitory concentration (GI50) (in test [1]; at Ba/F3 EGFR-Del19/T790M; on Ba/F3 EGFR-Del19/C797S) was below 50 nM in each case.
As to `Cc1cc2cc(n1)-c1cnn(C)c1CCCO[C@@H](C)CN1/C(=N/C2=O)Nc2ccc(CN3CCN(C)CC3)cc21` [Compound (55), (11S,21E)-5,11,26-trimethyl-16-[(4-methylpiperazin-1-yl)methyl]-10-oxa-4,5,13,20,22,27-hexazapentacyclo[22.3.1.02,6.013,21.014,19]octacosa-1(28),2(6),3,14(19),15,17,21,24,26-nonaen-23-one], the IC50 on EGFR^L858R/T790M/C797S was below 50 nM; on EGFR^L858R/T790M, below 50 nM; on EGFRL858R it was 100 to 1000 nM. The GI50 in test [1] was in the range of 50 to 100 nM; at Ba/F3 EGFR-Del19/T790M, 100 to 1000 nM; at Ba/F3 EGFR-Del19/C797S, 100 to 1000 nM.

Usually IC50 stands for the point on the concentration scale where inhibition reaches its midpoint. Usually GI50 stands for the concentration giving 50% growth inhibition.
